The values below come from paper PMC5785958, “New role of phenothiazine derivatives as peripherally acting CB1 receptor antagonizing anti-obesity agents” (Scientific Reports, 2018).

The nature of series [1]: PAMPA-BBB in vitro permeability assay. The class given is in vitro ADME, porcine. Also noted: key to Prediction (penetration in CNS): CNS- indicates low passive CNS permeation. The note with it: for Prediction (penetration in CNS): from PAMPA-BBB Pe, Pe less than 3.8 × 10^−6 cm s^−1 = low BBB permeation; for Papp at 120 min, 100 µg/ml: pig, PAMPA-BBB, porcine brain lipid, PBS/ethanol (70:30), 25 °C, mean ± SEM of three experiments, read-out: Pe. As to the method: As discussed above, BBB permeation of the available CB1 receptor antagonists limits their therapeutic utility. A successful CB1 receptor antagonist to be used as anti-obesity agent must be devoid of BBB permeability. […] In this study, the ability of the test compounds to cross the BBB was determined by the well established in vitro model PAMPA-BBB assay. This simple and rapid model has the advantage to predict passive BBB permeation with high accuracy[57],[58]. The in vitro permeability (Pe) of the test compounds through the lipid extract of porcine brain was determined in PBS/ethanol (70:30).
To assess the in vivo brain permeability potential of the test compounds, PAMPA assay for BBB was performed as reported by Di. et al.[57]. The donor microplate (polyvinylidene fluoride (PVDF) membrane, diameter 25 mm, pore size 0.45 µm Millipore) and the acceptor microplate were used for the experiment. The acceptor microplate was filled with 200 µl phosphate buffer saline (PBS) and ethanol in the ratio of 70:30 whereas the donor microplate filter surface was impregnated with porcine brain lipid (Avanti Polar Lipids) in dodecane (Sigma) (4 µl of 20 mg/ml). 200 µl of the test compound (100 µg/ml in PBS/ethanol) was added to the donor well. A sandwich was formed by placing the donor plate carefully on the acceptor plate, and the plates were kept undisturbed for 120 min at 25 °C. The donor plate was carefully detached after the incubation period and concentration of the test compound in the acceptor wells was determined using UV spectroscopy. Each sample was analyzed in four wells at five different wavelengths, and at least in three independent runs. Assay validation was performed by using nine commercial quality standard drugs of known BBB permeability[75] in which the reported permeability values of the standards were compared with their experimental permeability values, which gave a linear relationship, Pe(exp.) = 1.171Pe(bibl.) + 1.489 (R^2 = 0.983)[57],[58].

The subject of the next series is Wistar rats. Put plainly: Acute hypophagic response in 24 h food-deprived rats. It is filed as in vivo, rat. To be noted: for effect on food intake (in words): 2 h. As for the experimental part: As a preliminary screening, the synthesized compounds were evaluated for acute hypophagia in rats and the results are summarized in Fig. 5. Twenty four hour food deprived Wistar rats were given weighed amounts of food pellets after administration of the test compounds. Quantum of food consumed by the control group of animals was considered as 100%.
Male Wistar rats weighing 200–250 g were used in the present study to assess the acute hypophagic response. Animals were housed individually in a plexi-glass cage in a temperature and humidity controlled room with a 12 h light/dark cycle. Standard chow pellets and water were made available ad libitum. Animals were handled daily for a week before performing the actual experiments. The animal study protocol was approved by the Institutional Animal Ethics Committee (IAEC) of Faculty of Pharmacy, The Maharaja Sayajirao University of Baroda (Approval no. MSU/IAEC/2014-15/1401). The experiments were conducted in accordance to the guidelines of CPCSEA (Committee for the Purpose of Control and Supervision of Experiments on Animals), Ministry of Environment & Forests, Govt. of India. We tried our best to reduce the number of animals and their suffering.
The acute effect of the synthesized test compounds on feeding behavior was assessed in 24 h food-deprived animals. Before performing the experiments, the bedding material was removed from the cage. The animals were deprived of feed for 24 h with free access to water. The fasted animals were administered with the test compounds (10 mg/kg, p.o.). After 30 min of administration, weighed amounts of food pellets were served to the animals. Amount of food pellets and food spillage remaining after 2 h were weighed to find out the amount of food consumed by the animals.

Setting [2] is: 24 h fasted male Wistar rats, 10 mg/kg p.o.
Setting [3] is: 24 h fasted male Wistar rats, 10 mg/kg p.o., food served after 30 min, intake over 2 h.

SMILES strings stand for the structures.

Compound `N#Cc1cnc(SCC(=O)N2c3ccccc3Sc3ccc(C(F)(F)F)cc32)nc1N` [Compound 5, 4-Amino-2-(2-(2-trifluoromethyl-10H-phenothiazin-10-yl)-2-oxoethylthio)pyrimidine-5-carbonitrile] showed a melting point of 218 to 220 °C. In addition, in series [1], the “Prediction (penetration in CNS)” value is reported as “CNS-” and the Papp at 120 min, 100 µg/ml is 2.78 ± 0.14 ×10⁻⁶ cm/s. The “effect on food intake (in words)” value in the series with Wistar rats (setting [2]) is “weak short acting hypophagic activity”. The “food intake (control = 100%)” value with Wistar rats (24 h fasted male Wistar rats, 10 mg/kg p.o., food served after 30 min, intake over 2 h, 10 mg/kg) is given as 62–74%. Moreover, in the series on Wistar rats (po, 10 mg/kg), the “food intake (control = 100%)” value came out at 62%.
`N#Cc1cnc(SCC(=O)N2c3ccccc3Sc3ccc(Cl)cc32)nc1N` [Compound 22, 4-Amino-2-(2-(2-chloro-10H-phenothiazin-10-yl)-2-oxoethylthio)pyrimidine-5-carbonitrile] returned a melting point of 222 to 224 °C. In series [1], the “Prediction (penetration in CNS)” value was “CNS-” and the Papp at 120 min, 100 µg/ml was 2.28 ± 0.11 ×10⁻⁶ cm/s. In addition, the “food intake (control = 100%)” value with Wistar rats (setting [3]) is 62–74%.
Take `N#Cc1cnc(SCC(=O)N2c3ccccc3Sc3ccccc32)nc1N` [Compound 24, 4-Amino-2-(2-oxo-2-(10H-phenothiazin-10-yl)ethylthio)pyrimidine-5-carbonitrile]: the melting point is 241 to 243 °C.
For the compound `CCOC(=O)c1cnc(SCC(=O)N2c3ccccc3Sc3ccc(Cl)cc32)nc1N` [Compound 26, Ethyl 4-amino-2-(2-(2-chloro-10H-phenothiazin-10-yl)-2-oxoethylthio)pyrimidine-5-carboxylate], the melting point was in the range of 156 to 158 °C. Moreover, in series [1], the “Prediction (penetration in CNS)” value is “CNS-” and the Papp at 120 min, 100 µg/ml was 3.66 ± 0.67 ×10⁻⁶ cm/s. For the same compound, the “food intake (control = 100%)” value in the series on Wistar rats (setting [3]) is reported as 62–74%.
`CCOC(=O)c1cnc(SCC(=O)N2c3ccccc3Sc3ccccc32)nc1N` [Compound 28, Ethyl 4-amino-2-(2-oxo-2-(10H-phenothiazin-10-yl)ethylthio)pyrimidine-5-carboxylate]: the melting point is 202 to 204 °C.
Still for that read-out and setting: as for `O=C(CSc1nnc(-c2ccncc2)o1)N1c2ccccc2Sc2ccc(C(F)(F)F)cc21` [Compound 29, 2-(5-(4-Pyridyl)-1,3,4-oxadiazol-2-ylthio)-1-(2-trifluoromethyl-10H-phenothiazin-10-yl)ethanone], the figure is 156 to 158 °C; as for `O=C(CSc1nnc(-c2ccncc2)o1)N1c2ccccc2Sc2ccc(Cl)cc21` [Compound 30, 1-(2-Chloro-10H-phenothiazin-10-yl)-2-(5-(4-pyridyl)-1,3,4-oxadiazol-2-ylthio)ethanone], 194 to 196 °C; as for `COc1ccc2c(c1)N(C(=O)CSc1nnc(-c3ccncc3)o1)c1ccccc1S2` [Compound 31, 1-(2-Methoxy-10H-phenothiazin-10-yl)-2-(5-(4-pyridyl)-1,3,4-oxadiazol-2-ylthio)-ethanone], 166 to 168 °C.
In the case of `O=C(CSc1nnc(-c2ccncc2)o1)N1c2ccccc2Sc2ccccc21` [Compound 32, 1-(10H-Phenothiazin-10-yl)-2-(5-(4-pyridyl)-1,3,4-oxadiazol-2-ylthio)ethanone], the melting point lay in the range of 212 to 214 °C. In series [1], the “Prediction (penetration in CNS)” value was “CNS-” and the Papp at 120 min, 100 µg/ml is 3.22 ± 0.63 ×10⁻⁶ cm/s. For the same compound, in the series with Wistar rats (setting [2]), the “effect on food intake (in words)” value was “no effect on food intake”. Besides, the “food intake (control = 100%)” value in the series with Wistar rats (setting [3]) is 80–99%.
On to `Nn1c(SCC(=O)N2c3ccccc3Sc3ccc(C(F)(F)F)cc32)nnc1-c1ccncc1` [Compound 33, 2-(4-Amino-5-(4-pyridyl)-4H-1,2,4-triazol-3-ylthio)-1-(2-(trifluoromethyl)-10H-phenothiazin-10-yl)ethanone], for which the melting point fell in the range of 202 to 204 °C. In series [1], the “Prediction (penetration in CNS)” value is recorded as “CNS-” and the Papp at 120 min, 100 µg/ml is 1.05 ± 0.22 ×10⁻⁶ cm/s. In addition, the “effect on food intake (in words)” value with Wistar rats (setting [2]) is listed as “did not impact the food intake”. Also, in the series with Wistar rats (setting [3]), the “food intake (control = 100%)” value is 80–99%.
In turn, `COc1ccc2c(c1)N(C(=O)CSc1nnc(-c3ccncc3)n1N)c1ccccc1S2` [Compound 35, 2-(4-Amino-5-(4-pyridyl)-4H-1,2,4-triazol-3-ylthio)-1-(2-methoxy-10H-phenothiazin-10-yl)ethanone] registered a melting point of 188 to 190 °C.
Still for that read-out and setting: as for `Nn1c(SCC(=O)N2c3ccccc3Sc3ccccc32)nnc1-c1ccncc1` [Compound 36, 2-(4-Amino-5-(4-pyridyl)-4H-1,2,4-triazol-3-ylthio)-1-(10H-phenothiazin-10-yl)ethanone], the figure is 232 to 234 °C.
`N#Cc1cnc(SCCCN2c3ccccc3Sc3ccc(C(F)(F)F)cc32)nc1N` [Compound 42, 4-Amino-2-(3-(2-trifluoromethyl-10H-phenothiazin-10-yl)propylthio)pyrimidine-5-carbonitrile] returned a melting point of 164 to 166 °C. In addition, in series [1], the “Prediction (penetration in CNS)” value is recorded as “CNS-” and the Papp at 120 min, 100 µg/ml was 2.6 ± 0.18 ×10⁻⁶ cm/s. Moreover, in the series on Wistar rats (setting [2]), the “effect on food intake (in words)” value is “no effect on the food intake”. The “food intake (control = 100%)” value with Wistar rats (setting [3]) is reported as 80–99%.
`N#Cc1cnc(SCCCN2c3ccccc3Sc3ccc(Cl)cc32)nc1N` [Compound 43, 4-Amino-2-(3-(2-chloro-10H-phenothiazin-10-yl)propylthio)pyrimidine-5-carbonitrile] displayed a melting point of 138 to 140 °C. In addition, in series [1], the “Prediction (penetration in CNS)” value is “CNS-” and the Papp at 120 min, 100 µg/ml is 3.47 ± 0.66 ×10⁻⁶ cm/s. Also, in the series on Wistar rats (setting [3]), the “food intake (control = 100%)” value is listed as 62–74%.
For `COc1ccc2c(c1)N(CCCSc1ncc(C#N)c(N)n1)c1ccccc1S2` [Compound 44, 4-Amino-2-(3-(2-methoxy-10H-phenothiazin-10-yl)propylthio)pyrimidine-5-carbonitrile] the same measures were 158 to 160 °C, “CNS-”, 3.58 ± 0.73 ×10⁻⁶ cm/s and 62–74%.
As to `N#Cc1cnc(SCCCN2c3ccccc3Sc3ccccc32)nc1N` [Compound 45, 4-Amino-2-(3-(10H-phenothiazin-10-yl)propylthio)pyrimidine-5-carbonitrile], the melting point fell in the range of 117 to 119 °C.
The compound `CCOC(=O)c1cnc(SCCCN2c3ccccc3Sc3ccc(C(F)(F)F)cc32)nc1N` [Compound 46, Ethyl 4-amino-2-(3-(2-trifluoromethyl-10H-phenothiazin-10-yl)propylthio)pyrimidine-5-carboxylate] returned a melting point of 118 to 120 °C. For the same compound, in series [1], the “Prediction (penetration in CNS)” value is on record as “CNS-” and the Papp at 120 min, 100 µg/ml was 2.84 ± 0.28 ×10⁻⁶ cm/s. In addition, the “food intake (control = 100%)” value in the series with Wistar rats (setting [3]) is listed as 62–74%.
For the compound `CCOC(=O)c1cnc(SCCCN2c3ccccc3Sc3ccc(OC)cc32)nc1N` [Compound 48, Ethyl 4-amino-2-(3-(2-methoxy-10H-phenothiazin-10-yl)propylthio)pyrimidine-5-carboxylate], the melting point is 106 to 108 °C.
As to `CCOC(=O)c1cnc(SCCCN2c3ccccc3Sc3ccccc32)nc1N` [Compound 49, Ethyl 4-amino-2-(3-(10H-phenothiazin-10-yl)propylthio)pyrimidine-5-carboxylate], the melting point was in the range of 146 to 148 °C.
